In patent US10538555B2, “Macrocyclic inhibitors of the PD-1/PD-L1 and CD80(B7-1)/PD-L1 protein/protein interactions” (BRISTOL-MYERS SQUIBB COMPANY, priority 2014, dated 2020) one finds IC50 data, which are given here for six compounds.

Where a SMILES comes first, the peptide text is derived from it. Bridges are numbered along the chain shown (N, C = ends). [ ]: non-standard residue; d: D form. ξ: configuration not given here. Phe(3,4,5-F3) = N[C@@H](Cc1cc(F)c(F)c(F)c1)C(=O)O; NMePhe(4-Me) = CN[C@@H](Cc1ccc(C)cc1)C(=O)O; Bta = N[C@@H](Cc1csc2ccccc12)C(=O)O; Hyp = O=C(O)[C@@H]1C[C@@H](O)CN1; NMeF = CN[C@@H](Cc1ccccc1)C(=O)O; dHyp = O=C(O)[C@H]1C[C@H](O)CN1; NMeNle = CCCC[C@H](NC)C(=O)O; Pip = O=C(O)[C@@H]1CCCCN1; hSer = N[C@@H](CCO)C(=O)O; NMeA = CN[C@@H](C)C(=O)O; Orn = NCCC[C@H](N)C(=O)O; ξC = NC(CS)C(=O)O

The target in the experiment is T1, Human PD-L1/PD-1 (Homo sapiens, UniProt Q9NZQ7).
T1 construct: TVMV protease cleavage site (C); made in house; host or cells: HEK293T cells
T1 sequence (Q9NZQ7 with tags, fused parts or gaps): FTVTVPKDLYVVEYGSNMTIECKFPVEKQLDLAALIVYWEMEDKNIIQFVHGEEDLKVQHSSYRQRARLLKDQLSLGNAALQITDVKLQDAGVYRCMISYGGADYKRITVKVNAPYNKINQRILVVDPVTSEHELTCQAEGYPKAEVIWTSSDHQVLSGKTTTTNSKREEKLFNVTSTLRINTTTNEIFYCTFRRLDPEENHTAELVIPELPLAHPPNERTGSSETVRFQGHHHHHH
Put plainly: HTRF Human PD-L1/PD-1 binding assay (PD-1-Ig/PD-L1-His). The following applies: PD-L1-His 10 nM, PD-1-Ig 20 nM; class symbol; read-out: HTRF Human PD-L1/PD-1 Binding Assay IC50 Range. From the text: Methods for Testing the Ability of Macrocyclic Peptides to Compete for the Binding of PD-1 to PD-L1 Using Homogenous Time-Resolved Fluorescence (HTRF) Binding Assays
The ability of the macrocyclic peptides of the present disclosure to bind to PD-L1 was investigated using a PD-1/PD-L1 Homogenous Time-Resolved Fluorescence (HTRF) binding assay.
Homogenous Time-Resolved Fluorescence (HTRF) Assays of Binding of Soluble PD-1 to Soluble PD-L1. Soluble PD-1 and soluble PD-L1 refers to proteins with carboxyl-end truncations that remove the transmembrane-spanning regions and are fused to heterologous sequences, specifically the Fc portion of the human immunoglobuling G sequence (Ig) or the hexahistidine epitope tag (His). All binding studies were performed in an HTRF assay buffer consisting of dPBS supplemented with 0.1% (w/v) bovine serum albumin and 0.05% (v/v) Tween-20. For the PD-1-Ig/PD-L1-His binding assay, inhibitors were pre-incubated with PD-L1-His (10 nM final) for 15 m in 4 μl of assay buffer, followed by addition of PD-1-Ig (20 nM final) in 1 μl of assay buffer and further incubation for 15 m. PD-L1 fusion proteins from either human, cynomolgus macaques, or mouse were used. HTRF detection was achieved using europium crypate-labeled anti-Ig monoclonal antibody (1 nM final) and allophycocyanin (APC) labeled anti-His monoclonal antibody (20 nM final). Antibodies were diluted in HTRF detection buffer and 5 μl was dispensed on top of binding reaction. The reaction was allowed to equilibrate for 30 minutes and signal (665 nm/620 nm ratio) was obtained using an EnVision fluorometer. Additional binding assays were established between PD-1-Ig/PD-L2-His (20 and 5 nM, respectively), CD80-His/PD-L1-Ig (100 and 10 nM, respectively) and CD80-His/CTLA4-Ig (10 and 5 nM, respectively). Competition studies between biotinylated Compound No. 71 and human PD-L1-His were performed as follows. Macrocyclic peptide inhibitors were pre-incubated with PD-L1-His (10 nM final) for 60 minutes in 4 μl of assay buffer followed by addition of biotinylated Compound No. 71 (0.5 nM final) in 1 μl of assay buffer. Binding was allowed to equilibrate for 30 minutes followed by addition of europium crypated labeled Streptavidin (2.5 pM final) and APC-labeled anti-His (20 nM final) in 5 μl of HTRF buffer. The reaction was allowed to equilibrate for 30 m and signal (665 nm/620 nm ratio) was obtained using an EnVision fluorometer.
Recombinant Proteins. Carboxyl-truncated human PD-1 (amino acids 25-167) with a C-terminal human Ig epitope tag [hPD-1 (25-167)-3S-IG] and human PD-L1 (amino acids 18-239) with a C-terminal His epitope tag [hPD-L1([…])-tobacco vein mottling virus protease cleavage site (TVMV)-His] were expressed in HEK293T cells and purified sequentially by rProteinA affinity chromatography and size exclusion chromatography.
(In general: In TR-FRET formats the signal depends on donor and acceptor labels being close together.)
For `CCCC[C@H]1C(=O)N(C)[C@@H](C)C(=O)N[C@@H](CCCNC(=N)N)C(=O)NC(C(=O)NCC(N)=O)CSCC(=O)N[C@@H](Cc2ccc(O)cc2)C(=O)N(C)[C@@H](C)C(=O)N[C@@H](CC(N)=O)C(=O)N2CCC[C@H]2C(=O)N[C@@H](CO)C(=O)N[C@H](CC(C)C)C(=O)N2C[C@H](O)C[C@H]2C(=O)N[C@@H](Cc2c[nH]c3ccccc23)C(=O)N[C@@H](CO)C(=O)N[C@@H](Cc2csc3ccccc23)C(=O)N1C` (stereo partly drawn) [Example 9116] ({CH2CO}-Y[NMeA]NPS[dL][Hyp]WS[Bta][NMeNle][NMeA]R[ξC]G-NH2; thioether N-14), the IC50 is 10 to 99.9 nM. For `CCCC[C@H]1C(=O)N(C)[C@@H](C)C(=O)N[C@@H](CCCNC(=N)N)C(=O)NC(C(=O)NCC(N)=O)CSCC(=O)N[C@@H](Cc2ccc(O)cc2)C(=O)N(C)[C@@H](C)C(=O)N[C@@H](CC(N)=O)C(=O)N2CCC[C@H]2C(=O)N[C@@H](CC(N)=O)C(=O)N[C@@H](CC(C)C)C(=O)N2CCC[C@H]2C(=O)N[C@@H](Cc2c[nH]c3ccccc23)C(=O)N[C@@H](CO)C(=O)N[C@@H](Cc2c[nH]c3ccccc23)C(=O)N1C` (stereo partly drawn) [Example 9136] ({CH2CO}-Y[NMeA]NPNLPWSW[NMeNle][NMeA]R[ξC]G-NH2; thioether N-14), the IC50 was 10 to 99.9 nM. For `CCCC[C@H]1C(=O)N2C[C@@H](O)C[C@@H]2C(=O)N[C@@H](CC(=O)O)C(=O)N[C@@H](C(C)C)C(=O)N(C)[C@@H](Cc2ccc(C)cc2)C(=O)N[C@@H](CCCN)C(=O)N2CCC[C@@H]2C(=O)N[C@@H](Cc2c[nH]c3ccccc23)C(=O)N[C@@H](Cc2ccc(O)cc2)C(=O)N[C@@H](CC(C)C)C(=O)N[C@H](C(=O)NCC(N)=O)CSCC(=O)N[C@@H](Cc2cc(F)c(F)c(F)c2)C(=O)N(C)[C@@H](Cc2ccccc2)C(=O)N1C` [Example 10119] ({CH2CO}-[Phe(3,4,5-F3)][NMeF][NMeNle][dHyp]DV[NMePhe(4-Me)][Orn][dP]WYLCG-NH2; thioether N-13), the IC50 lay in the range of 100 to 990 nM.

For `CCCC[C@H]1C(=O)N(C)[C@@H](CCCC)C(=O)N[C@@H](CCCNC(=N)N)C(=O)N[C@H](C(=O)NCC(N)=O)CSCC(=O)N[C@@H](Cc2ccc(O)cc2)C(=O)N2CCCC[C@H]2C(=O)N[C@@H](CCC(=O)O)C(=O)N2CCC[C@H]2C(=O)N[C@@H](Cc2c[nH]cn2)C(=O)N[C@@H](CCCN)C(=O)N2C[C@H](O)C[C@H]2C(=O)N[C@@H](Cc2c[nH]c3ccccc23)C(=O)N[C@@H](CO)C(=O)N[C@@H](Cc2c[nH]c3ccccc23)C(=O)N1C` [Example 1538] ({CH2CO}-Y[Pip]EPH[Orn][Hyp]WSW[NMeNle][NMeNle]RCG-NH2; thioether N-14), the IC50 was 10 to 99.9 nM. Under `CCCC[C@H]1C(=O)N[C@@H](CC(N)=O)C(=O)N2CCC[C@H]2C(=O)N[C@@H](CO)C(=O)N[C@@H](CCO)C(=O)N2CCC[C@H]2C(=O)N[C@@H](Cc2c[nH]c3ccccc23)C(=O)N[C@@H](CCO)C(=O)N[C@@H](Cc2c[nH]c3ccccc23)C(=O)N(C)[C@@H](C)C(=O)N(C)[C@@H](C)C(=O)N[C@@H](CCCN)C(=O)NC(C(=O)NCC(N)=O)CSCC(=O)N[C@@H](Cc2ccc(O)cc2)C(=O)N1C` (stereo partly drawn) [Example 10216] ({CH2CO}-Y[NMeNle]NPS[hSer]PW[hSer]W[NMeA][NMeA][Orn][ξC]G-NH2; thioether N-14) stands 1000 to 10000 nM; under `CCCC[C@H]1C(=O)N(C)[C@@H](CCCC)C(=O)N[C@@H](C)C(=O)NC(C(=O)NCC(N)=O)CSCC(=O)N[C@@H](Cc2ccc(O)cc2)C(=O)N(C)[C@@H](C)C(=O)N[C@@H](CC(N)=O)C(=O)N2CCC[C@H]2C(=O)N[C@@H](CC(N)=O)C(=O)N[C@@H](CC(C)C)C(=O)N2C[C@H](O)C[C@H]2C(=O)N[C@@H](Cc2c[nH]c3ccccc23)C(=O)N[C@@H](CO)C(=O)N[C@@H](Cc2csc3ccccc23)C(=O)N1C` (stereo partly drawn) [Example 9135] ({CH2CO}-Y[NMeA]NPNL[Hyp]WS[Bta][NMeNle][NMeNle]A[ξC]G-NH2; thioether N-14), 1 to 9.9 nM.
